Laboratory results published in ChEMBL document CHEMBL1909046, “DrugMatrix in vitro pharmacology data”.

Experiments:
[1] = DRUGMATRIX: Serotonin (5-Hydroxytryptamine) 5-HT3 radioligand binding (ligand: [3H] GR-65630); format: cell membranes, Membrane; details: hek293; Not Active = under 50% inhibition at 10 µM
[2] = molecular target: T1, Vasoactive intestinal polypeptide receptor 1 (Homo sapiens, UniProt P32241); format: cell membranes, Membrane; details: ht-29; further: in other assays of this panel Not Active means under 50% inhibition at 10 µM
T1 sequence (P32241 whole entry): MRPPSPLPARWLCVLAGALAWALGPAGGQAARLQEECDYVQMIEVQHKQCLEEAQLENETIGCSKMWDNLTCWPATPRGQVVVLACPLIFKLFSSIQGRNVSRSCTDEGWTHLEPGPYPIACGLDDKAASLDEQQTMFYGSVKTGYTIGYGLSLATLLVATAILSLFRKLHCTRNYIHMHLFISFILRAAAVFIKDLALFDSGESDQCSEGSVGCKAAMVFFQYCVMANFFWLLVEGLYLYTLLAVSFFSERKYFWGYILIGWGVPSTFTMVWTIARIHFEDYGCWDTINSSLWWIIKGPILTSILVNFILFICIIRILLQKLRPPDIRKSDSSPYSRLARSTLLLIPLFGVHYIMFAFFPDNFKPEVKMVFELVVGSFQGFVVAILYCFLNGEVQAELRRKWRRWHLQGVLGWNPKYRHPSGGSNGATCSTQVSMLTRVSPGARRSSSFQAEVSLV

[3] = molecular target: C-C chemokine receptor type 2 (Homo sapiens, UniProt P41597); format: cell membranes, CHO-K1, Membrane; further: in other assays of this panel Not Active means under 50% inhibition at 10 µM
Endothelin-1 receptor = molecular target: T2, Endothelin-1 receptor (Homo sapiens, UniProt P25101); format: cell membranes, Membrane; details: cho-k1; further: in other assays of this panel Not Active means under 50% inhibition at 10 µM
T2 sequence (P25101 whole entry): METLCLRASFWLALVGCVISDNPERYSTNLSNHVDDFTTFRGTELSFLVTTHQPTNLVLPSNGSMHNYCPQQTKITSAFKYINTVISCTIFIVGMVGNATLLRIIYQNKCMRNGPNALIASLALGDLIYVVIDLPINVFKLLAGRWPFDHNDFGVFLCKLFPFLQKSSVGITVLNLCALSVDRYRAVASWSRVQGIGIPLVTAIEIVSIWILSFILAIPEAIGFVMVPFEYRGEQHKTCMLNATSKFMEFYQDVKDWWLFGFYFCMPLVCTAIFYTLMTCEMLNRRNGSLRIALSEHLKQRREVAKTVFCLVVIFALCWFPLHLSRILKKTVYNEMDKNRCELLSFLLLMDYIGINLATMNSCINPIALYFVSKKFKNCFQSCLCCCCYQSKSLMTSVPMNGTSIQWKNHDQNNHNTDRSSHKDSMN

[4] = molecular target: Tyrosine-protein kinase Fyn (Homo sapiens, UniProt P06241); test: biochemical; format: cell-based, Insect cells; details: insect cells;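 further: enzymatic inhibition of Fyn kinase activity measured with Poly(Glu:Tyr) as the phosphorylation substrate; in other assays of this panel Not Active means under 50% inhibition at 10 µM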
[5] = molecular target: Receptor tyrosine-protein kinase erbB-2 (Homo sapiens, UniProt P04626); test: biochemical; format: cell-based, Insect cells; details: insect cells
Chain of Receptor tyrosine-protein kinase erbB-2 (P04626 whole entry): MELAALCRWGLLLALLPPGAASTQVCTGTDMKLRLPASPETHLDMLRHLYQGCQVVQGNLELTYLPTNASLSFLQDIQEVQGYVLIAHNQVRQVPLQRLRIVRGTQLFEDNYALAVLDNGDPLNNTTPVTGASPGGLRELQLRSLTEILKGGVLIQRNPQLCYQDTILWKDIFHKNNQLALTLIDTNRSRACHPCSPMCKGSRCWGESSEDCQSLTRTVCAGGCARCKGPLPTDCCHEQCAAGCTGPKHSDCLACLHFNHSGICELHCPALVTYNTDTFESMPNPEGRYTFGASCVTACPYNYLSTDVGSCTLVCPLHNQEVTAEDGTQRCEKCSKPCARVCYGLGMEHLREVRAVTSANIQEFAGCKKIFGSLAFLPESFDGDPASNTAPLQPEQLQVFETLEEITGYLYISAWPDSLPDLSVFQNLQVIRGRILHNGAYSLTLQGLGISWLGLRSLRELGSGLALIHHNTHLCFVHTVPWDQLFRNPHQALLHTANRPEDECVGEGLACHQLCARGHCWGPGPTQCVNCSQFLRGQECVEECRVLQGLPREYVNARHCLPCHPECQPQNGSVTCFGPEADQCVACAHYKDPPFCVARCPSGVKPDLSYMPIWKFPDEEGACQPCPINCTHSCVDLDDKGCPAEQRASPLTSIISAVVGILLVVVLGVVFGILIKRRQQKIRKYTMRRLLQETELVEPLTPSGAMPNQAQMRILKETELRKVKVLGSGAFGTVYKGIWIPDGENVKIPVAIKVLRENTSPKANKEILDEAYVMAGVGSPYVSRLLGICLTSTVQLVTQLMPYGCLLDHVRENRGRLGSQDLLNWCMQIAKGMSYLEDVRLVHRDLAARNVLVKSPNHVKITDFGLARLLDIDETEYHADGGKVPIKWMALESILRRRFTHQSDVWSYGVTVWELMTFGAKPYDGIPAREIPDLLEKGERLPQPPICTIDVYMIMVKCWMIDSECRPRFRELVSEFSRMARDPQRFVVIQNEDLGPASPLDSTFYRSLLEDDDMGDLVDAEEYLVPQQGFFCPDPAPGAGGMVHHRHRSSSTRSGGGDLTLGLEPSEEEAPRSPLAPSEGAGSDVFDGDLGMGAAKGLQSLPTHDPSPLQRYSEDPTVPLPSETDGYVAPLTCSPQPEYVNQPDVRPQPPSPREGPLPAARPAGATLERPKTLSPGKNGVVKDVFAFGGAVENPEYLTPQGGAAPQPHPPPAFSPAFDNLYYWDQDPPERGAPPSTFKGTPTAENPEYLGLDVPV

Chain of Tyrosine-protein kinase Fyn (P06241 whole entry): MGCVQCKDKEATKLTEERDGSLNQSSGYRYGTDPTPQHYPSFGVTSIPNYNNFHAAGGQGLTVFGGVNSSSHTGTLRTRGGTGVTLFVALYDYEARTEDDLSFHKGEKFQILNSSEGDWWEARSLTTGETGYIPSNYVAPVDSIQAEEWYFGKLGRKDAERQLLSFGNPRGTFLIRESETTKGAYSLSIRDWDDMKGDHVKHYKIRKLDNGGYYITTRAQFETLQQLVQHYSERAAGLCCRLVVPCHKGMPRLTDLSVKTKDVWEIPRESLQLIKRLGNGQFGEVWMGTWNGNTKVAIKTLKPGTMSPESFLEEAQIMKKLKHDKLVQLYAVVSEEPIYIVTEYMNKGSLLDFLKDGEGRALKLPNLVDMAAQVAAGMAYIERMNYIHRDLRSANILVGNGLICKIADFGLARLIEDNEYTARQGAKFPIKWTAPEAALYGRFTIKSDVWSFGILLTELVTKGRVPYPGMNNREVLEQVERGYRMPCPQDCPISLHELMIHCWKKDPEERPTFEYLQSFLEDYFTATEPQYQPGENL
Chain of C-C chemokine receptor type 2 (P41597 whole entry): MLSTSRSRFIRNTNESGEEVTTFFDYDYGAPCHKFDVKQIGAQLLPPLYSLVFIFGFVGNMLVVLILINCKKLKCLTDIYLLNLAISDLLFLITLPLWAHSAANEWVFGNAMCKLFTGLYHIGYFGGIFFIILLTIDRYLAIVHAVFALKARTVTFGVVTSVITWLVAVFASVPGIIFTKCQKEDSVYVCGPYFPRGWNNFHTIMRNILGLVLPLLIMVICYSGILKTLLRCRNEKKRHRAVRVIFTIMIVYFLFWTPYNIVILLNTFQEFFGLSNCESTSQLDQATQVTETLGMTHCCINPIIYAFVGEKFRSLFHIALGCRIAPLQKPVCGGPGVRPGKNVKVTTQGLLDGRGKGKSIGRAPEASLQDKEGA

CADMIUM DICHLORIDE
IC50 [1]: Not Active
Ki [1]: Not Active
IC50 [2]: Not Active
Ki [2]: Not Active
IC50 ([3]; cho-k1): Not Active
Ki ([3]; cho-k1): Not Active
IC50 (Endothelin-1 receptor): Not Active
Ki (Endothelin-1 receptor): Not Active
IC50 ([4]; read-out: IC50): 137 nM

CCCN(CCC)C(=O)C(CCC(=O)O)NC(=O)c1ccccc1 (stereo not drawn) [PROGLUMIDE]
IC50 [1]: Not Active
Ki [1]: Not Active
IC50 [2]: Not Active
IC50 ([3]; cho-k1): Not Active
IC50 (Endothelin-1 receptor): Not Active
IC50 [4]: Not Active
IC50 [5]: Not Active

O=C(N[C@H](CO)[C@H](O)c1ccc([N+](=O)[O-])cc1)C(Cl)Cl [CHLORAMPHENICOL]
IC50 [1]: Not Active
Ki [1]: Not Active
IC50 [2]: Not Active
IC50 ([3]; cho-k1): Not Active
IC50 (Endothelin-1 receptor): Not Active
IC50 [4]: Not Active
IC50 [5]: Not Active

CCCCOc1ccc(OCCCN2CCOCC2)cc1 [PRAMOXINE]
IC50 [1]: Not Active
Ki [1]: Not Active
IC50 [2]: Not Active
IC50 ([3]; cho-k1): Not Active
IC50 (Endothelin-1 receptor): Not Active
IC50 [4]: Not Active
IC50 [5]: Not Active

CC(C)(C(=O)c1cccnc1)c1cccnc1 [METYRAPONE]
IC50 [1]: Not Active
Ki [1]: Not Active
IC50 [2]: Not Active
IC50 ([3]; cho-k1): Not Active
IC50 (Endothelin-1 receptor): Not Active
IC50 [4]: Not Active
IC50 [5]: Not Active

CC(=O)Nc1cccc(O)c1 [METACETAMOL]
IC50 [1]: Not Active
Ki [1]: Not Active
IC50 [2]: Not Active
IC50 ([3]; cho-k1): Not Active
IC50 (Endothelin-1 receptor): Not Active
IC50 [4]: Not Active
IC50 [5]: Not Active

NC(=O)c1cnccn1 [PYRAZINAMIDE]
IC50 [1]: Not Active
Ki [1]: Not Active
IC50 [2]: Not Active
IC50 ([3]; cho-k1): Not Active
IC50 (Endothelin-1 receptor): Not Active
IC50 [4]: Not Active
IC50 [5]: Not Active

CC[C@@H](CO)NCCN[C@@H](CC)CO [ETHAMBUTOL]
IC50 [1]: Not Active
Ki [1]: Not Active
IC50 [2]: Not Active
IC50 ([3]; cho-k1): Not Active
IC50 (Endothelin-1 receptor): Not Active
IC50 [4]: Not Active
IC50 [5]: Not Active

CC(C)(Oc1ccc(C2CCCc3ccccc32)cc1)C(=O)O (stereo not drawn) [NAFENOPIN]
IC50 [1]: Not Active
Ki [1]: Not Active
IC50 [2]: Not Active
IC50 ([3]; cho-k1): Not Active
IC50 (Endothelin-1 receptor): Not Active
IC50 [4]: Not Active
IC50 [5]: Not Active

C[C@@H]1C[C@@H]([C@H](O)CC2CC(=O)NC(=O)C2)C(=O)[C@@H](C)C1 [CYCLOHEXIMIDE]
IC50 [1]: Not Active
Ki [1]: Not Active
IC50 [2]: Not Active
IC50 ([3]; cho-k1): Not Active
IC50 (Endothelin-1 receptor): Not Active
IC50 [4]: Not Active
IC50 [5]: Not Active

CCn1cc(C(=O)O)c(=O)c2cc(F)c(N3CCN(C)CC3)cc21 [PEFLOXACIN]
IC50 [1]: Not Active
Ki [1]: Not Active
IC50 [2]: Not Active
IC50 ([3]; cho-k1): Not Active
IC50 (Endothelin-1 receptor): Not Active
IC50 [4]: Not Active
IC50 [5]: Not Active

CCN(CC)CCOC(=O)c1ccc(N)cc1 [PROCAINE]
IC50 [1]: Not Active
Ki [1]: Not Active
IC50 [2]: Not Active
IC50 ([3]; cho-k1): Not Active
IC50 (Endothelin-1 receptor): Not Active
IC50 [4]: Not Active
IC50 [5]: Not Active

CCCC(CCC)C(=O)O [VALPROIC ACID]
IC50 [1]: Not Active
Ki [1]: Not Active
IC50 [2]: Not Active
IC50 ([3]; cho-k1): Not Active
IC50 (Endothelin-1 receptor): Not Active
IC50 [4]: Not Active
IC50 [5]: Not Active

S=C=Nc1cccc2ccccc12 [1-NAPHTHYLISOTHIOCYANATE]
IC50 [1]: Not Active
Ki [1]: Not Active
IC50 [2]: Not Active
IC50 ([3]; read-out: IC50): 6.7 µM
Ki ([3]; read-out: Ki): 2590 nM
IC50 (Endothelin-1 receptor): Not Active
IC50 [4]: Not Active
IC50 [5]: Not Active

COc1ccc2cc([C@H](C)C(=O)O)ccc2c1 [NAPROXEN]
IC50 [1]: Not Active
Ki [1]: Not Active
IC50 [2]: Not Active
IC50 ([3]; cho-k1): Not Active
IC50 (Endothelin-1 receptor): Not Active
IC50 [4]: Not Active
IC50 [5]: Not Active
